From US10851064B2, “ACSS2 inhibitors and methods of use thereof” (METABOMED LTD., priority 2017, dated 2020)
Values joined by “and” are separate entries in the source; they are usually repeats but may differ in a detail not shown here. Identical values can stand only once.

Each compound was assayed against ACSS2 (Homo sapiens, UniProt Q9NR19) (assay: biochemical).
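Also: Cell-free human ACSS2 enzyme reaction with acetate, CoA and ATP, 90 min at 37 C, coupled to pyrophosphatase, phosphate release detected by Biomol Green absorbance at 620 nm.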
Description: ACSS2 Cell-Free Activity Assay (Cell-Free IC50)
The assay is based on a coupling reaction with Pyrophosphatase: ACSS2 is converting ATP+CoA+Acetate=>AMP+pyrophosphate+Acetyl-CoA (Ac-CoA). Pyrophosphatase converts pyrophosphate, a product of the ACSS2 reaction, to phosphate which can be detected by measuring the absorbance at 620 nm after incubation with the Biomol green reagent (Enzo life Science, BML-AK111).
Cell-free IC50 Determination:
At the end of the reaction, Biomol Green was added for 30 minutes at RT and the activity was measured by reading the absorbance at 620 nm.

ACSS2, sequence (Q9NR19 whole entry): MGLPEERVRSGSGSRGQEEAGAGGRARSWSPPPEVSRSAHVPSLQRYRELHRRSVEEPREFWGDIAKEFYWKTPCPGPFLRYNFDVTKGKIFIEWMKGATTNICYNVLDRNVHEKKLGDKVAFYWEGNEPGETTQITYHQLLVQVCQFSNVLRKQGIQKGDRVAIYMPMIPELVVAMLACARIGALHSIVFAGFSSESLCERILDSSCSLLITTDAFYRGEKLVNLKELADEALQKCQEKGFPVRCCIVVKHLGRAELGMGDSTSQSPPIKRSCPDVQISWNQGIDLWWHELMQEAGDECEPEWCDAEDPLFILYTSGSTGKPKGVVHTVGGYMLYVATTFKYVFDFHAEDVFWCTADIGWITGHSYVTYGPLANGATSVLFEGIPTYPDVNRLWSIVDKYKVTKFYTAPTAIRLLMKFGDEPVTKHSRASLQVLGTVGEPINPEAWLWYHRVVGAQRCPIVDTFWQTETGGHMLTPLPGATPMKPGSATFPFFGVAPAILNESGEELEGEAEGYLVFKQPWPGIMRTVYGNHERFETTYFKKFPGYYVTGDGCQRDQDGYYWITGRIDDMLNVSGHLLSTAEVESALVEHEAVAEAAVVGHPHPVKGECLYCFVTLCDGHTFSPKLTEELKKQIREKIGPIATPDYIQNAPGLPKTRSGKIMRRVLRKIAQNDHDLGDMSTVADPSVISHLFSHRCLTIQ

IC50 | Compound
0.01 to 6 nM | CC1=NN(c2cc(-c3ccccc3)cc(-c3cccnc3)c2)C(=O)C1C(=O)Nc1cccc(C(C)(F)F)c1 (centres unmarked) [compound 390]
100 to 1000 nM | CCc1cc(NC(=O)C2C(=O)N(c3ccccc3)N=C2C)cs1 (centres unmarked) [compound 284]
100 to 1000 nM | CC1=NN(c2ccc(OC(F)F)cc2)C(=O)C1C(=O)Nc1cccc(C(C)(F)C(C)C)c1 (centres unmarked) [compound 409]
6 to 100 nM | CC1=NN(c2ccc(OC(F)F)cc2)C(=O)C1C(=O)Nc1cc(C(C)(F)F)cc2ccoc12 (centres unmarked) [compound 403]
1000 to 100000 nM | CC1=NN(c2ccccc2)C(=O)C1C(=O)Nc1cccc(CN)c1 (centres unmarked) [compound 223, N-(3-(aminomethyl)phenyl)-3-methyl-5-oxo-1-phenyl-4,5-dihydro-1H-pyrazole-4-carboxamide]
6 to 100 nM | CCOC(=O)c1cccc(NC(=O)C2C(=O)N(c3ccccc3)N=C2C)c1 (centres unmarked) [compound 113, Ethyl 3-(3-methyl-5-oxo-1-phenyl-4,5-dihydro-1H-pyrazole-4-carboxamido)benzoate]
0.01 to 6 nM | COc1ccc(N2N=C(C)C(C(=O)Nc3cccc(C(C)(F)F)c3)C2=O)cc1-c1ncc(C)o1 (centres unmarked) [compound 352]
100 to 1000 nM | CCc1cscc1NC(=O)C1C(=O)N(c2ccccc2)N=C1C (centres unmarked) [compound 290]
1000 to 100000 nM | CC1=NN(c2ccccc2)C(=O)C1C(=O)Nc1ccc2c(c1)C(=O)OC2 (centres unmarked) [compound 122, 3-methyl-5-oxo-N-(3-oxo-1,3-dihydroisobenzofuran-5-yl)-1-phenyl-4,5-dihydro-1H-pyrazole-4-carboxamide]
6 to 100 nM | CC1=NN(c2cc(Cc3ccccc3Cl)cc(-c3ccccc3)c2)C(=O)C1C(=O)Nc1cccc(C(C)(F)F)c1 (centres unmarked) [compound 333]
> 100000 nM | N#Cc1ccc(OCCNC(=O)C(N)c2ccccc2)cc1 (centres unmarked) [compound 180]
0.01 to 6 nM | COc1ccc(N2N=C(C)C(C(=O)Nc3cccc(C(C)(F)F)c3)C2=O)c(C(C)(C)C)c1 (centres unmarked) [compound 460]
100 to 1000 nM | CC1=NN(c2ccccc2)C(=O)C1C(=O)Nc1cccc(S(=O)(=O)N(C)C)c1 (centres unmarked) [compound 139, N-(3-(N,N-dimethylsulfamoyl)phenyl)-3-methyl-5-oxo-1-phenyl-4,5-dihydro-1H-pyrazole-4-carboxamide]
0.01 to 6 nM | COc1ccc(N2N=C(C)C(C(=O)Nc3cccc(C(C)(F)F)c3)C2=O)cc1-c1nnc(C)o1 (centres unmarked) [compound 430]
6 to 100 nM | CC1=NN(c2cccc(C(=O)O)c2)C(=O)C1C(=O)Nc1cccc(-c2ncc[nH]2)c1 (centres unmarked) [compound 172]
1000 to 100000 nM | CC1=NN(c2ccccc2)C(=O)C1C(=O)NC1CCOCC1 (centres unmarked) [compound 112, 3-methyl-5-oxo-1-phenyl-N-(tetrahydro-2H-pyran-4-yl)-4,5-dihydro-1H-pyrazole-4-carboxamide]
100 to 1000 nM | CC1=NN(c2ccccc2)C(=O)C1C(=O)Nc1cccc(C(C)(C)C)c1 (centres unmarked) [compound 115, N-(3-(tert-butyl)phenyl)-3-methyl-5-oxo-1-phenyl-4,5-dihydro-1H-pyrazole-4-carboxamide]
6 to 100 nM | CC1=NN(c2cccc(S(=O)(=O)N(C)C)c2)C(=O)C1C(=O)Nc1cccc(-c2ncc[nH]2)c1 (centres unmarked) [compound 277]
6 to 100 nM | CC1=NN(c2ccc(C(F)(F)F)cc2)C(=O)C1C(=O)Nc1cccc(-c2ccco2)c1 (centres unmarked) [compound 162, N-(3-(furan-2-yl)phenyl)-3-methyl-5-oxo-1-(4-(trifluoromethyl)phenyl)-4,5-dihydro-1H-pyrazole-4-carboxamide]
0.01 to 6 nM | CCC(F)(F)c1cccc(NC(=O)C2C(=O)N(c3ccc(OC)c(-c4ccccc4)c3)N=C2C)c1 (centres unmarked) [compound 368]
6 to 100 nM | CC1=NN(c2cc(Cc3ccc(Cl)cc3)cc(-c3cccnc3)c2)C(=O)C1C(=O)Nc1cccc(C(C)(F)F)c1 (centres unmarked) [compound 384]
0.01 to 6 nM | CCC(F)(F)c1cccc(NC(=O)C2C(=O)N(c3ccc(OC(F)F)c(-c4nnc(C)[nH]4)c3)N=C2C)c1 (centres unmarked) [compound 370]

IC50 | Compound
100 to 1000 nM | CC1=NN(c2ccc(OC(F)F)cc2)C(=O)C1C(=O)N(C)c1cccc(Cl)c1 (centres unmarked) [compound 395]
6 to 100 nM | COc1ccc(N2N=C(C)C(C(=O)Nc3cccc(-c4ncco4)c3)C2=O)cn1 (centres unmarked) [compound 245]
6 to 100 nM | COc1c(-c2ccccc2)cc(N2N=C(C)C(C(=O)Nc3cccc(C(C)(F)F)c3)C2=O)cc1-c1ccccc1 (centres unmarked) [compound 402]
0.01 to 6 nM | CC1=NN(c2ccc3ccn(Cc4ccccc4)c3c2)C(=O)C1C(=O)Nc1cccc(C(C)(F)F)c1 (centres unmarked) [compound 367]
0.01 to 6 nM | CC1=NN(c2cccc(C#CCNC(=O)CCCC(=O)Nc3ccc4c(c3)C(=O)N(C3CCC(=O)NC3=O)C4=O)c2)C(=O)C1C(=O)Nc1cccc(C(C)(F)F)c1 (centres unmarked) [compound 382]
100 to 1000 nM | CC1=NN(c2ccc(OC(F)F)cc2)C(=O)C1C(=O)Nc1cccc(C2COC2)c1 (centres unmarked) [compound 329]
100 to 1000 nM | CC1=NN(c2ccc(S(=O)(=O)N(C)C)cc2)C(=O)C1C(=O)Nc1ccccc1 (centres unmarked) [compound 110, 1-(4-(N,N-dimethylsulfamoyl)phenyl)-3-methyl-5-oxo-N-phenyl-4,5-dihydro-1H-pyrazole-4-carboxamide]
0.01 to 6 nM | CC1=NN(c2cc(Br)cc(-c3ccccc3)c2)C(=O)C1C(=O)Nc1cccc(C(C)(F)F)c1 (centres unmarked) [compound 389]
100 to 1000 nM | CCc1cccc(NC(=O)C2C(=O)N(c3ccc(NC(=O)N(C)C)cc3)N=C2C)c1 (centres unmarked) [compound 155, 1-(4-(3,3-dimethylureido)phenyl)-N-(3-ethylphenyl)-3-methyl-5-oxo-4,5-dihydro-1H-pyrazole-4-carboxamide]
0.01 to 6 nM | CC1=NN(c2ccc3ccn(C(C)C)c3c2)C(=O)C1C(=O)Nc1cccc(C(C)(F)F)c1 (centres unmarked) [compound 364]
0.01 to 6 nM | CC1=NN(c2ccc(OC(F)F)cc2F)C(=O)C1C(=O)Nc1cccc(C(C)(F)F)c1 (centres unmarked) [compound 456]
100 to 1000 nM and 6 to 100 nM | COCc1cccc(NC(=O)C2C(=O)N(c3ccccc3)N=C2C)c1 (centres unmarked) [compound 103, N-(3-(methoxymethyl)phenyl)-3-methyl-5-oxo-1-phenyl-4,5-dihydro-1H-pyrazole-4-carboxamide]
100 to 1000 nM | COc1cc(Cl)cc(N(C)C(=O)C2C(=O)N(c3ccc(OC(F)F)cc3)N=C2C)c1 (centres unmarked) [compound 392]
0.01 to 6 nM | CC1=NN(c2ccc(OC(F)F)c(-c3cnccn3)c2)C(=O)C1C(=O)Nc1cccc(C(C)(F)F)c1 (centres unmarked) [compound 437]
1000 to 100000 nM | CCNC(c1cccc(NC(=O)C2C(=O)N(c3ccccc3)N=C2C)c1)C(F)(F)F (centres unmarked) [compound 176]
6 to 100 nM | CC(=O)NS(=O)(=O)c1cc(N2N=C(C)C(C(=O)Nc3cccc(-c4ccco4)c3)C2=O)ccc1OC(F)(F)F (centres unmarked) [compound 299]
0.01 to 6 nM | COc1ccc(N2N=C(C)C(C(=O)Nc3cccc(C(C)(F)F)c3)C2=O)cc1-c1ccccn1 (centres unmarked) [compound 434]
100 to 1000 nM | CC1=NN(c2ccc(OC(F)F)cc2)C(=O)C1C(=O)Nc1cccc(C(C)(F)F)c1 (centres unmarked) [compound 418]
100 to 1000 nM | CC1=NN(c2ccncc2)C(=O)C1C(=O)Nc1cccc(-c2ncc[nH]2)c1 (centres unmarked) [compound 233]
0.01 to 6 nM | CCC(F)(F)c1cccc(NC(=O)C2C(=O)N(c3ccc4cc[nH]c4c3)N=C2C)c1 (centres unmarked) [compound 369]
0.01 to 6 nM | CC1=NN(c2ccc(Cc3ccccc3)c(-c3ccccc3)c2)C(=O)C1C(=O)Nc1cccc(C(C)(F)F)c1 (centres unmarked) [compound 375]
100 to 1000 nM | CC1=NN(c2ccc(C(F)(F)F)cc2)C(=O)C1C(=O)Nc1cccc(-c2ncco2)c1 (centres unmarked) [compound 270]
